Reference: ChEMBL document CHEMBL1123053, “Analogues of platelet activating factor. 3. Replacement of the phosphate moiety with a sulfonylbismethylene group” (1985)

Experiments:
Assay type in all cases: functional
Rattus norvegicus [1] = assay: Effect on mean arterial blood pressure in SHR rat at the dose of 0.3 mg/kg i.v.; conditions: route intravenous
Oryctolagus cuniculus = organism: Oryctolagus cuniculus; assay: Compound did not aggregate rabbit platelet at concentration of 1.8E-5 M
Rattus norvegicus [2] = assay: Effect on mean arterial blood pressure in SHR rat at the dose of 10 mg/kg i.v.; conditions: route intravenous

Structure (SMILES)	Blood pressure (Rattus norvegicus [1])	Activity (Oryctolagus cuniculus)	Blood pressure (Rattus norvegicus [2])
CCCCCCCCCCCCCCCCOCC(COP(=O)([O-])OCC[N+](C)(C)C)OC(C)=O (stereo not drawn) [PLATELET ACTIVATING FACTOR]	20 mmHg	Did not aggregate rabbit platelet at concentration of 1.8E-5 M	
CCCCCCCCCCCCCCCCOCC(CCS(=O)(=O)CCC[N+](C)(C)C)OC(C)=O.[Cl-] (stereo not drawn)			20 mmHg
